4 compounds from PMC3236199, “Development of Derivatives of 3, 3′-Diindolylmethane as Potent Leishmania donovani Bi-Subunit Topoisomerase IB Poisons” (PLoS ONE, 2011) can be followed below.

Assay [1] deals with L. donovani AG83 promastigotes. The assay can be described thus: Cell viability assay, wild type promastigotes. Type of assay: cell-based. To be noted: Leishmania donovani, 12 h, read-out: growth inhibited. On the procedure:
L. donovani strain AG83 and DIM resistant parasite DR50 promastigotes were grown at 22°C in M199 liquid media supplemented with 10% FBS as described. Axenic amastigotes were cultured in modified M199 medium (pH 5.3) supplemented with 10 mM sodium succinate, 40 mM HEPES and 25% FCS and maintained at 37°C with 5% CO2.The effect of drugs on the viability of Leishmania parasites was determined by direct microscopic counting using light microscope (40× objective) in a haemocytometer. The cells at the exponential phase were collected and transferred into 24-well plate (3.5×10^6 cells per well). The cells were then incubated for 12 h in the presence of various concentrations of DIM, DPDIM, DMDIM and DMODIM (1, 5, 10, 20 and 50 µM). For other experiments, 10^4 cells were taken and grown in presence of the respective derivatives for a period of 30 days. For each 5 day interval, a small amount of aliquots were taken out. After incubation the cells were centrifuged and cell pellet was washed with PBS (1×) twice and finally suspended in 1 ml PBS (1×). Fifty µl of aliquot was taken, mixed with 0.4% trypan blue solution and incubated for 3 min at 22°C. One drop of the mixture was transferred to haemocytometer and the clear (live) and blue (dead) cells were counted. The total number of viable cells in aliquot was calculated by multiplying the total number of viable cells by 2 (the dilution factor for trypan blue). To obtain the total number of cells in the aliquot, total number of viable and nonviable cells were added up and multiplied by 2. Percentages of viable cells were calculated using the formula: [drawing 1]
The effects of different derivatives of DIM on cell proliferation were tested by incubating wild type and DIM resistant L. donovani promastigotes (3.5×10^6 cells/ml) with the drugs. […] The number of live promastigotes was measured by differential staining of live and dead cells using light microscope under 40× objective (Fig. 2). […]
Figure 2 Effect of DIM-derivatives on Leishmania parasites. Growth of L. donovani AG83 promastigotes (A) and DIM resistant promastigotes (B) were monitored in presence of increasing concentrations (1, 5, 10, 20 and 50 µM) of DIM, DPDIM, DMDIM and DMODIM for 12 h. […] Change in IC50 values after a prolong exposure to DIM derivatives (C) has been assessed as described in Materials and Methods. After every 5 day a small aliquot was taken out and number of viable promastigotes was counted for each concentration. IC50 values have been determined from them using Graph Pad Prsim ver 5.0 software and a graphical plot was generated over time. Growth of the parasites treated with the compounds was expressed as percentage of the viable promastigotes compared with that of control. […]

The subject of assay [2] is F270L mutant topoisomerase I. The assay can be described thus: Equilibrium (duplex oligonucleotide) cleavage assay, F270L mutant. Type of assay: biochemical, Leishmania donovani. The note with it: 20 µM, with respect to cleavable complex formed without drug with wild type enzyme. How it is done: Cells were lysed and proteins were purified through Ni^+2-NTA agarose column (Qiagen) followed by phosphocellulose column chromatography (P11 cellulose, Whatman) as described. Finally the purified proteins LdTOP1L, LdTOP1L^F270L and LdTOP1S were stored at −70°C. Purified LdTOP1L and LdTOP1L^F270L were mixed with purified LdTOP1S separately and at a molar ratio of 1∶1 at a total protein concentration of 0.5 mg/ml in reconstitution buffer (50 mM potassium phosphate, pH 7.5, 0.5 mM DTT, 1 mM EDTA, 0.1 mM PMSF, 10% glycerol). The mixtures were dialyzed over night at 4°C and the dialyzed fractions were used for the plasmid relaxation activity.
The 25-mer oligonucleotide 1 (5′-GAAAAAAGACTT↓AGAAAAATTTTTA-3′) was 5′-end labeled with [γ^32P] ATP and annealed with oligonucleotide 2 (5′-[…]-3′) to make a duplex oligonucleotide containing a topoisomerase I binding motif as described. Cleavage assay was carried out using 20-fold molar excess of enzymes over duplex 25-mer DNA (enzymes, 0.2 µM; DNA, 10 nM). The reactions were carried out in standard assay condition in the absence or presence of drugs at 37°C for 30 min. All the reactions were stopped by addition of SDS to a final concentration of 2% (w/v), digested with 5 µl of 1 mg/ml trypsin and analyzed by 12% denaturing polyacrylamide gel followed by autoradiography. The amount of strand cleavage in the presence of drugs was determined by densitometry of the film as described.
The effect of DIM and its derivatives on L. donovani topoisomerase I was examined by plasmid DNA cleavage assay as described. The topoisomerase reaction has three general mechanistic steps: (i) binding of enzyme to the substrate DNA, (ii) single strand breakage and subsequent strand rotation through the break leading to change in linking number, and (iii) strand religation. The second step of reaction is the introduction of a single-stranded nick in the phosphodiester bond of the DNA, through which an intact strand is allowed to pass. […]

Read-outs that look alike come from different tables or passages of the source.

Consider `COc1ccc2[nH]cc(Cc3c[nH]c4ccc(OC)cc34)c2c1` [DMODIM, 5,5′-dimethoxy 3,3′-diindolyl methane], for which, in assay [1], the inhibition at 20 µM was found to be 70%. In assay [2], this compound yielded an extent of cleavage of roughly 50%. Turning to `c1ccc2c(Cc3c[nH]c4ccccc34)c[nH]c2c1` [DIM, 3, 3′-diindolyl methane, reference compound], the inhibition at 20 µM in assay [1] (20 µM, wild type AG83 promastigotes) came out at 88%. Regarding `c1ccc(-c2[nH]c3ccccc3c2Cc2c(-c3ccccc3)[nH]c3ccccc23)cc1` [DPDIM, 2,2′-diphenyl 3,3′-diindolyl methane], the inhibition at 20 µM in assay [1] was 96%. The extent of cleavage in assay [2] was found to be 56%. Taken in the same sequence, the figures for `Cc1[nH]c2ccccc2c1Cc1c(C)[nH]c2ccccc12` [DMDIM, 2,2′-dimethyl 3,3′-diindolyl methane] were 83% and roughly 53%.
